Values quoted from earlier work in patent US20070093743A1, “Iontophoresis Drug Delivery Device Providing Acceptable Depth and Duration of Dermal Anesthesia” (Vyteris, Inc., priority 2005, published 2007).

Conditions: iontophoresis in vitro across human skin

| SMILES | cumulative delivery compared with lidocaine |
| --- | --- |
| CCCN(CC)C(CC)C(=O)Nc1c(C)cccc1C (stereo not drawn) [etidocaine] | slightly greater delivery |
| CCCNC(C)C(=O)Nc1ccccc1C (stereo not drawn) [prilocaine] | slightly greater delivery |
| CCN(CC)CCOC(=O)c1ccc(N)cc1 [procaine] | slightly greater delivery |
